Measurements published in patent US20100249071A1, “Modulators of S1P and Methods of Making And Using” (Exelixis, Inc., priority 2009, published 2010).
Read-outs that look alike come from different tables or passages of the source.

Assays:
[1] = target: T1, hS1PR5 (hEdg8) membrane protein (Homo sapiens, UniProt Q9H228); assay: hS1P5R GTPγS binding assay (Assay 4); assay type: biochemical
T1 construct: expressed in transfected cells; host or cells: CHO
Procedure, shortened: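 Membranes (5 μg) from CHO cells expressing hS1PR5, incubated 1 h at room temperature with 30 μM GDP, 0.1 nM [35S]GTPγS, 0.25% fatty acid free BSA and serially diluted compound in pH 7.9 Tris buffer with MgCl2. WGA SPA beads added for another 1 h, then bound [35S]GTPγS counted by scintillation.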

[2] = target: T2, S1P1 (Homo sapiens, UniProt P21453); assay: Tango β-arrestin recruitment assay in U2OS cells (Assay 2b); assay type: cell-based; conditions: read-out: Assay 2b EC50
T2 construct: host or cells: U2OS
T2 sequence (P32121 whole entry): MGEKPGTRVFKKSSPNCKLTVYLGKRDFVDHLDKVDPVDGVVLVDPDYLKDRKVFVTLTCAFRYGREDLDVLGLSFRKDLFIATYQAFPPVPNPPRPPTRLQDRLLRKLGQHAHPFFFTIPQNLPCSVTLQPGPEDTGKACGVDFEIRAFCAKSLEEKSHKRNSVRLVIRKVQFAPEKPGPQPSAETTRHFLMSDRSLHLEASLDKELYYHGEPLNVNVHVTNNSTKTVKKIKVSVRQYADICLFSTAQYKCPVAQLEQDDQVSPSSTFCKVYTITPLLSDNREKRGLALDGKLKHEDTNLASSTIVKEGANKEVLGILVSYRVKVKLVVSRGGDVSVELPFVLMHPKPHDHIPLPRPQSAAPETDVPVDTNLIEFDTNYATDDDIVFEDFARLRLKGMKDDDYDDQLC
T2 sequence (P21453 whole entry): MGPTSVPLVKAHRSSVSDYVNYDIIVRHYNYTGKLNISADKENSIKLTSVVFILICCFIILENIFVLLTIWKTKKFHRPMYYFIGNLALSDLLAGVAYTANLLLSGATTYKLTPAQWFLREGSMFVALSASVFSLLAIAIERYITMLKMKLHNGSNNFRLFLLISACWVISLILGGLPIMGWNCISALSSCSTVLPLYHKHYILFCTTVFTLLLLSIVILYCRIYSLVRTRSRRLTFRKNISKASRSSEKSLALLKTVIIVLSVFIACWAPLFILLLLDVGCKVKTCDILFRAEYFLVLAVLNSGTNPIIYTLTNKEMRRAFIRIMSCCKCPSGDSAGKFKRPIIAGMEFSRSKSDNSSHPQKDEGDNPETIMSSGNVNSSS
Procedure, shortened: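 In this agonist-mode Tango assay, U2OS cells carrying S1P1 and the reporter were serum-starved 48 h, then exposed overnight at 37 °C to compound (10 points, 3-fold, top 1 μM, 1% DMSO). β-Lactamase F460/F530 ratio was normalized to 1 μM S1P, and EC50 was fitted.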

[3] = target: T3, S1P3 (Homo sapiens, UniProt Q99500); assay: S1P3 Tango β-arrestin recruitment assay in HEK293 cells (Assay 5); assay type: cell-based
T3 construct: host or cells: HEK293 (transient transfection)
T3 sequence (P32121 whole entry): as the sequence (P32121 whole entry) above
T3 sequence (Q99500 whole entry): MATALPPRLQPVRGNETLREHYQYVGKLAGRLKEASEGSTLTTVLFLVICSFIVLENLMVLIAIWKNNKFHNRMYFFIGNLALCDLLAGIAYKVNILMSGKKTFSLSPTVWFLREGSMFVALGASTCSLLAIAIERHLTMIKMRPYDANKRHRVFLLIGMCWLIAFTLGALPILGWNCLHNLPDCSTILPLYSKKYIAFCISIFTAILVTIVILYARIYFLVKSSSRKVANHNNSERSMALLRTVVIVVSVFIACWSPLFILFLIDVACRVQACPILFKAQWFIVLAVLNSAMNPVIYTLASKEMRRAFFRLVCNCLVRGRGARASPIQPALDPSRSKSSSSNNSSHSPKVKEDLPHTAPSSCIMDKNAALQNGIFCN
Procedure, shortened: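 HEK293 cells transiently expressing S1P3 fused via TEV-cleavable linker to tTA, with β-arrestin2–TEV, treated 16-18 h at 37 °C with compounds (top 10 μM, 10-point 3-fold, 1% DMSO). Luciferase reporter luminescence normalised to DMSO background and 5 μM S1P control as percent activity; EC50 from concentration-response curves.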

[4] = target: T4, hS1P1R (hEdg1) membrane protein (Homo sapiens, UniProt P21453); assay: hS1P1R GTPγS binding assay (Assay 3a); assay type: biochemical
T4 construct: purchased Lonza
T4 sequence (P21453 whole entry): as the sequence (P21453 whole entry) above
Procedure, shortened: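 Membranes (4 μg) expressing hS1P1R incubated 1 h at room temperature with 30 μM GDP, 0.1 nM [^35S]GTPγS, 0.25% fatty acid free BSA and serially diluted agonist in Tris-HCl pH 7.9/NaCl/MgCl2/EGTA buffer. Bound [^35S]GTPγS captured on WGA SPA beads (further 1 h) and counted.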

[5] = * = rEC50 measured rather than EC50, read-out: Assay 5 rEC50 (relative EC50, cells marked *)

T1 sequence (Q9H228 whole entry): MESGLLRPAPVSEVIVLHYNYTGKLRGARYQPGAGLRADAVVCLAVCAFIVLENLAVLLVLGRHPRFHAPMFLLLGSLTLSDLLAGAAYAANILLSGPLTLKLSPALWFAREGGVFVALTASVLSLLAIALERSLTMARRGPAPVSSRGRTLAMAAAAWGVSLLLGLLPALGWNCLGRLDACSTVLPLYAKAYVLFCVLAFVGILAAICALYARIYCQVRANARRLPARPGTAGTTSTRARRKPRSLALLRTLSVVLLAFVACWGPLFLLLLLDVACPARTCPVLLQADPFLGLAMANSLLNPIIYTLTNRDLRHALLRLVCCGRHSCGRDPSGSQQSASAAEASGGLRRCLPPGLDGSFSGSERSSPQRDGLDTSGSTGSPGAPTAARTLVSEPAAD

Row | SMILES | EC50 [1] [nM] | EC50 [2] [nM] | EC50 ([3]; read-out: Assay 5 EC50) [nM] | EC50 [4] [nM] | EC50 [3, 5] [nM]
1 | CC(C)Nc1ccc(-c2nnc(-c3cc(F)c(OC[C@@H](N)COP(=O)(O)O)cc3Cl)s2)cn1 [Entry 47, (2R)-2-amino-3-{[5-chloro-2-fluoro-4-(5-{6-[(1-methylethyl)amino]pyridin-3-yl}-1,3,4-thiadiazol-2-yl)phenyl]oxy}propyl dihydrogen phosphate] | ≤ 10 | ≤ 10 | ≤ 250 | ≤ 10 | –
2 | CC(C)Nc1ncc(-c2nnc(-c3cc(F)c(OC[C@H](N)[C@@H](C)O)cc3Cl)s2)cc1Cl [Entry 48, (2R,3S)-3-amino-4-{[5-chloro-4-(5-{5-chloro-6-[(1-methylethyl)amino]pyridin-3-yl}-1,3,4-thiadiazol-2-yl)-2-fluorophenyl]oxy}butan-2-ol] | 250 to 2800 | ≤ 10 | > 10000 | 10 to 50 | –
3 | N#Cc1cc(-c2nnc(-c3cc(F)c(OC[C@H](N)CO)cc3Cl)s2)ccc1OC1COC1 [Entry 49, 5-[5-(4-{[(2R)-2-amino-3-hydroxypropyl]oxy}-2-chloro-5-fluorophenyl)-1,3,4-thiadiazol-2-yl]-2-(oxetan-3-yloxy)benzonitrile] | 50 to 250 | ≤ 10 | > 10000 | ≤ 10 | –
4 | CC(C)Oc1ccc(-c2nnc(-c3cc(F)c(OC[C@H](N)[C@@H](C)OP(=O)(O)O)cc3Cl)s2)cc1C#N [Entry 50, (1R,2S)-2-amino-3-{[5-chloro-4-(5-{3-cyano-4-[(1-methylethyl)oxy]phenyl}-1,3,4-thiadiazol-2-yl)-2-fluorophenyl]oxy}-1-methylpropyl dihydrogen phosphate] | ≤ 10 | ≤ 10 | ≤ 250 | ≤ 10 | –
5 | CC(C)Oc1ccc(-c2nnc(-c3cc(F)c(OC[C@H](N)[C@@H](C)OP(=O)(O)O)cc3Cl)s2)cc1Cl [Entry 51, (1R,2S)-2-amino-3-{[5-chloro-4-(5-{3-chloro-4-[(1-methylethyl)oxy]phenyl}-1,3,4-thiadiazol-2-yl)-2-fluorophenyl]oxy}-1-methylpropyl dihydrogen phosphate] | ≤ 10 | ≤ 10 | ≤ 250 | ≤ 10 | –
6 | CC(C)Nc1ccc(-c2nnc(-c3cc(F)c(OC[C@H](N)COP(=O)(O)O)cc3Cl)s2)cn1 [Entry 52, (2S)-2-amino-3-{[5-chloro-2-fluoro-4-(5-{6-[(1-methylethyl)amino]pyridin-3-yl}-1,3,4-thiadiazol-2-yl)phenyl]oxy}propyl dihydrogen phosphate] | ≤ 10 | ≤ 10 | – | ≤ 10 | > 250
7 | CC(C)Oc1ccc(-c2nnc(-c3cc(F)c(OC[C@H](N)[C@H](C)OP(=O)(O)O)cc3Cl)s2)cc1C#N [Entry 53, (1S,2S)-2-amino-3-{[5-chloro-4-(5-{3-cyano-4-[(1-methylethyl)oxy]phenyl}-1,3,4-thiadiazol-2-yl)-2-fluorophenyl]oxy}-1-methylpropyl dihydrogen phosphate] | ≤ 10 | ≤ 10 | > 10000 | ≤ 10 | –
8 | CC(C)Nc1ccc(-c2nnc(-c3cc(F)c(OC[C@H](N)[C@H](C)OP(=O)(O)O)cc3Cl)s2)cn1 [Entry 54, (1S,2S)-2-amino-3-{[5-chloro-2-fluoro-4-(5-{6-[(1-methylethyl)amino]pyridin-3-yl}-1,3,4-thiadiazol-2-yl)phenyl]oxy}-1-methylpropyl dihydrogen phosphate] | 10 to 50 | ≤ 10 | > 250 | ≤ 10 | –
9 | CC(C)Oc1ccc(-c2nnc(-c3cc(F)c(OC[C@@H](N)[C@H](C)O)cc3Cl)s2)cc1C#N [Entry 55, 5-[5-(4-{[(2R,3S)-2-amino-3-hydroxybutyl]oxy}-2-chloro-5-fluorophenyl)-1,3,4-thiadiazol-2-yl]-2-[(1-methylethyl)oxy]benzonitrile] | ≤ 10 | ≤ 10 | ≤ 250 | ≤ 10 | –
10 | CC(C)Nc1ccc(-c2nnc(-c3cc(F)c(OC[C@H](N)[C@H](C)O)cc3Cl)s2)cn1 [Entry 56, (2S,3S)-3-amino-4-{[5-chloro-2-fluoro-4-(5-{6-[(1-methylethyl)amino]pyridin-3-yl}-1,3,4-thiadiazol-2-yl)phenyl]oxy}butan-2-ol] | > 10000 | 250 to 2800 | > 10000 | 250 to 2800 | –

Results, then the compound that gave them:

Row | EC50 [1] [nM] | EC50 [2] [nM] | EC50 ([3]; read-out: Assay 5 EC50) [nM] | EC50 [4] [nM] | EC50 [3, 5] [nM] | SMILES
11 | 250 to 2800 | 50 to 250 | > 10000 | 50 to 250 | – | CC(C)Nc1cc(-c2nnc(-c3cc(F)c(OC[C@H](N)[C@@H](C)O)cc3Cl)s2)ccn1 [Entry 57]
12 | 250 to 2800 | ≤ 10 | > 10000 | 250 to 2800 | – | CC(C)Nc1ccc(-c2nnc(-c3cc(F)c(OC[C@@H](N)[C@H](C)O)cc3Cl)s2)cn1 [Entry 59, (2S,3R)-3-amino-4-{[5-chloro-2-fluoro-4-(5-{6-[(1-methylethyl)amino]pyridin-3-yl}-1,3,4-thiadiazol-2-yl)phenyl]oxy}butan-2-ol]
13 | 10 to 50 | 10 to 50 | > 10000 | ≤ 10 | – | Cc1cc(-c2nnc(-c3cc(F)c(OC[C@H](N)[C@@H](C)O)cc3Cl)s2)ccc1OC(C)C [Entry 60, (2R,3S)-3-amino-4-{[5-chloro-2-fluoro-4-(5-{3-methyl-4-[(1-methylethyl)oxy]phenyl}-1,3,4-thiadiazol-2-yl)phenyl]oxy}butan-2-ol]
14 | 10 to 50 | 50 to 250 | > 10000 | ≤ 10 | – | Cc1cc(-c2nnc(-c3cc(F)c(OC[C@H](N)[C@H](C)O)cc3Cl)s2)ccc1OC(C)C [Entry 61, (2S,3S)-3-amino-4-{[5-chloro-2-fluoro-4-(5-{3-methyl-4-[(1-methylethyl)oxy]phenyl}-1,3,4-thiadiazol-2-yl)phenyl]oxy}butan-2-ol]
15 | 10 to 50 | 10 to 50 | > 250 | ≤ 10 | – | Cc1cc(-c2nnc(-c3cc(F)c(OC[C@H](N)[C@H](C)O)cc3Cl)s2)cc(NC(C)C)n1 [Entry 63, (2S,3S)-3-amino-4-{[5-chloro-2-fluoro-4-(5-{2-methyl-6-[(1-methylethyl)amino]pyridin-4-yl}-1,3,4-thiadiazol-2-yl)phenyl]oxy}butan-2-ol]
16 | ≤ 10 | ≤ 10 | – | ≤ 10 | ≤ 250 | CC(C)Oc1ccc(-c2nnc(-c3cc(F)c(OC[C@@H](N)[C@H](C)OP(=O)(O)O)cc3Cl)s2)cc1Cl [Entry 64, (1S,2R)-2-amino-3-{[5-chloro-4-(5-{3-chloro-4-[(1-methylethyl)oxy]phenyl}-1,3,4-thiadiazol-2-yl)-2-fluorophenyl]oxy}-1-methylpropyl dihydrogen phosphate]
17 | 2800 to 10000 | 10 to 50 | > 10000 | 50 to 250 | – | Cc1cc(-c2nnc(-c3cc(F)c(OC[C@H](N)[C@@H](C)O)cc3Cl)s2)cnc1NC(C)C [Entry 65, (2R,3S)-3-amino-4-{[5-chloro-2-fluoro-4-(5-{5-methyl-6-[(1-methylethyl)amino]pyridin-3-yl}-1,3,4-thiadiazol-2-yl)phenyl]oxy}butan-2-ol]
18 | 250 to 2800 | ≤ 10 | > 10000 | 10 to 50 | – | Cc1cc(-c2nnc(-c3cc(F)c(OC[C@@H](N)[C@@H](C)O)cc3Cl)s2)cnc1NC(C)C [Entry 67, (2R,3R)-3-amino-4-{[5-chloro-2-fluoro-4-(5-{5-methyl-6-[(1-methylethyl)amino]pyridin-3-yl}-1,3,4-thiadiazol-2-yl)phenyl]oxy}butan-2-ol]
19 | 250 to 2800 | ≤ 10 | > 10000 | 50 to 250 | – | CC(C)Nc1ccc(-c2nnc(-c3cc(F)c(OC[C@@H](N)[C@@H](C)O)cc3Cl)s2)cn1 [Entry 68, (2R,3R)-3-amino-4-{[5-chloro-2-fluoro-4-(5-{6-[(1-methylethyl)amino]pyridin-3-yl}-1,3,4-thiadiazol-2-yl)phenyl]oxy}butan-2-ol]
20 | 10 to 50 | ≤ 10 | – | ≤ 10 | > 250 | CC(C)Oc1ccc(-c2nnc(-c3cc(F)c(OC[C@H](N)[C@H](C)OP(=O)(O)O)cc3Cl)s2)cc1Cl [Entry 69, (1S,2S)-2-amino-3-{[5-chloro-4-(5-{3-chloro-4-[(1-methylethyl)oxy]phenyl}-1,3,4-thiadiazol-2-yl)-2-fluorophenyl]oxy}-1-methylpropyl dihydrogen phosphate]
21 | ≤ 10 | ≤ 10 | ≤ 250 | ≤ 10 | – | CC(C)Oc1ccc(-c2nnc(-c3cc(F)c(OC[C@@H](N)[C@@H](C)OP(=O)(O)O)cc3Cl)s2)cc1Cl [Entry 70, (1R,2R)-2-amino-3-{[5-chloro-4-(5-{3-chloro-4-[(1-methylethyl)oxy]phenyl}-1,3,4-thiadiazol-2-yl)-2-fluorophenyl]oxy}-1-methylpropyl dihydrogen phosphate]
